Reference: paper PMC4961458 (eLife, 2016)

What was measured:
[1] = test system: TamR1 tumors; test: Tamoxifen-resistant MCF7 (TamR1) xenograft efficacy; format: in vivo, mice; details: 0.18 mg 60 day E2 pellets; tamoxifen 120 mg/kg/day p.o.; fulvestrant 200 mg/kg 3x/week s.c.; GDC-0810 10, 30 or 100 mg/kg/day p.o.; 27 days
Procedure: We previously generated a tamoxifen-resistant xenograft model, TamR1, by chronically treating MCF7 tumor bearing mice with tamoxifen until a resistant tumor emerged ([Lai et al., 2015]). […] These experiments were conducted in mice with relatively high levels of circulating estradiol, with estradiol being delivered via 0.72 mg 60 day release E2 pellets that are reported by the manufacturer (Innovative Research) to deliver between 300 and 400 pg/ml estradiol. Under these conditions the high E2 reduces the steady state ERα protein levels, thus confounding the readout of ERα protein as a pharmacodynamic endpoint (Figure 5—figure supplement 1). […] These pellets are sufficient to support tumor growth but only modestly reduce ERα levels (Figure 5—figure supplement 1).
Figure 5. […] (A) Tamoxifen-resistant MCF7 tumors were implanted in animals supplemented with 60-day release 0.18 mg 17β-estradiol pellets. […] S.c. is sub-cutaneous dosing, and p.o. is per os (by mouth) oral gavage dosing. * Denotes significance (p<0.05) compared to Vehicle in 1-Way ANOVA and Dunnett's Multiple Comparison Test. Figure 5—figure supplement 1. Effects of estradiol pellet on ERα levels in MCF7-TamR1 xenograft tumors. TamR1 tumor fragments were implanted into Crl:NU-Foxn1^nu mice implanted with either 0.72 or 0.18 mg/60 day 17-β estradiol pellets. Once tumors were established pellets were removed from 1 group. 28 days after pellet removal ERα protein levels were determined for 4 tumors from each group. Data is presented as average compared to Vehicle (-E2). Error is standard deviation. * Denotes significance (p<0.05) compared to Vehicle (-E2) by T-test. [drawing 7] […] (A) ERα protein levels were determined by western blot analysis of tumors 8 hr following the final compound treatment on day 27. […] KI-67 expression, quantified from IHC analysis. […]
The tamoxifen-resistant derivative of the ER+ human tumor cell line, MCF7 (TamR1) was developed by Seragon Pharmaceuticals, Inc ([Lai et al., 2015]). […] The tumors which continued to grow under these conditions were serially passaged and evaluated for continued tamoxifen resistance. […]

[2] = test system: ER; parameters: method as in van Kruchten et al., 2015; details: 500 mg dose, 6/16 patients; ref van Kruchten et al., 2015; cited from earlier work
[3] = Fulvestrant plasma concentrations in mice
[4] = test system: T47D ER.WT cells; test: Cell viability, T47D ER.WT cells; format: cell-based; details: Homo sapiens, +E2
Procedure: In the presence of 0.1 nM estrogen however, much of this competitive advantage is lost, with WT cells representing 40% ± 0.2% of the total population at day 15 (Figure 7C,D).
Figure 7. […] 4 images per condition were quantified.

[5] = test system: ER; parameters: method as in Dickler et al., 2015; details: postmenopausal women with ER+ locally advanced or metastatic breast cancer, patients with FES-PET scans; ref Dickler et al., 2015; cited from earlier work
[6] = molecular target: T1, PR-A (Homo sapiens, UniProt P06401); test: PR-A transcriptional reporter assay, antagonist mode (HEPG2 cells)
T1 sequence (P06401 1-769 isoform P06401-2): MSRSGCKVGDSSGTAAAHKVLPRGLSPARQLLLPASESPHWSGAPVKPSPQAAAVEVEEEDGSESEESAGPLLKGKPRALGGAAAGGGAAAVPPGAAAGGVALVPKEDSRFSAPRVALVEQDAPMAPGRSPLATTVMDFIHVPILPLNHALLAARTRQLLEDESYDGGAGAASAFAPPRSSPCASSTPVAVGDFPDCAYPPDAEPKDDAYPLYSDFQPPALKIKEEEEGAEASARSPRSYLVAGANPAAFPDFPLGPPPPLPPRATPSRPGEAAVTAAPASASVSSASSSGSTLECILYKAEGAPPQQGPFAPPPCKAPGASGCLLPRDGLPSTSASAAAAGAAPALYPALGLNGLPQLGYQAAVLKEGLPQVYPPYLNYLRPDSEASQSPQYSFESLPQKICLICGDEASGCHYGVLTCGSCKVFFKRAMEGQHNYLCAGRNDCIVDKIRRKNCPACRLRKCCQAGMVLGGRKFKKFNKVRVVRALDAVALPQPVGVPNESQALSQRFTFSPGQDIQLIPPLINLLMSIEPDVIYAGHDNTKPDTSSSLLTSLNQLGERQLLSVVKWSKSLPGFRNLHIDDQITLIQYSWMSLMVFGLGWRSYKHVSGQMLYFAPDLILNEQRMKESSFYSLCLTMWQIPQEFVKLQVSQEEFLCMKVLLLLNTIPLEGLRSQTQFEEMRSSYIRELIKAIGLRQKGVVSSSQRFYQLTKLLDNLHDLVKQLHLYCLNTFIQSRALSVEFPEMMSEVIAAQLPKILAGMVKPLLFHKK

SMILES	Tumor growth response, TamR1 xenograft, lower E2 [1]	patients with incomplete inhibition of [18F]fluoroestradiol uptake [2]	Plasma Conc Mean ([3]; 50 mg/kg Days 1, 3 & 8, 25 mg/kg Days 15 & 22, Day 21, Time 0 hr) [ng/mL]	Plasma Conc Mean ([3]; 200 mg/kg 3x/wk, Day 28, Time 0 hr) [ng/mL]	Plasma Conc Mean ([3]; 200 mg/kg 3x/wk, Day 57, Time 0 hr) [ng/mL]	plasma concentrations (exposure) on average ([3]; mice, 200 mg/kg dose, 3 times per week) [ng·h/mL]	IC50 [4] [µM]	patients with complete/near complete (>90%) suppression of FES uptake [5]	IC50 [6] [µM]
C[C@]12CC[C@@H]3c4ccc(O)cc4C[C@@H](CCCCCCCCC[S+]([O-])CCCC(F)(F)C(F)(F)F)[C@H]3[C@@H]1CC[C@@H]2O (stereo partly shown) [Fulvestrant]	resulted in regression of TamR1 tumors	38 % of patients	15	731	665	12000 to 14000	–	–	–
CC/C(=C(/c1ccc(/C=C/C(=O)O)cc1)c1ccc2[nH]ncc2c1)c1ccc(F)cc1Cl [GDC-0810]	induced regression at all doses tested	–	–	–	–	–	0.032	90 % of patients	–
CC/C(=C(\c1ccc(O)cc1)c1ccc(OCCN(C)C)cc1)c1ccccc1 [4-OH Tam, 4-hydroxytamoxifen]	–	–	–	–	–	–	–	–	12 ± 4.5
